Measured values from PMC9669214 (Biochemistry, 2022).

Biological target: GacI-PP (Streptomyces glaucescens, UniProt B0B0T9)
Assay: LC-Q-TOF-MS of product V1P
Assay type: biochemical
Details: V1,7PP 1 mM, Tris-HCl 20 mM pH 7.5, 30 °C

SMILES: O=P(O)(O)OCC1=CC(OP(=O)(O)O)C(O)C(O)C1O (stereo not shown) [compound 8, V1,7PP]
- LC-Q-TOF-MS of product V1P; MESG/PNP initial velocity: The protein was then incubated with V1,7PP and the formation of V1P was confirmed
